pIC50: −log10 of the molar value.
What was measured:
[1] = Inhibition of recombinant perforin-mediated lysis of Jurkat cells assessed as [51Cr] release preincubated with perforin for 30 mins followed by incubation with [51Cr]-labeled Jurkat cells by gamma counting
Perforin-1 = molecular target: T1, Perforin-1 (Homo sapiens, UniProt P14222); assay: Inhibition of recombinant perforin-mediated lysis of Jurkat cells assessed as [51Cr] release preincubated with perforin for 30 mins followed by incubation with [51Cr]-labeled Jurkat cells by gamma counting
T1 sequence (P14222 whole entry): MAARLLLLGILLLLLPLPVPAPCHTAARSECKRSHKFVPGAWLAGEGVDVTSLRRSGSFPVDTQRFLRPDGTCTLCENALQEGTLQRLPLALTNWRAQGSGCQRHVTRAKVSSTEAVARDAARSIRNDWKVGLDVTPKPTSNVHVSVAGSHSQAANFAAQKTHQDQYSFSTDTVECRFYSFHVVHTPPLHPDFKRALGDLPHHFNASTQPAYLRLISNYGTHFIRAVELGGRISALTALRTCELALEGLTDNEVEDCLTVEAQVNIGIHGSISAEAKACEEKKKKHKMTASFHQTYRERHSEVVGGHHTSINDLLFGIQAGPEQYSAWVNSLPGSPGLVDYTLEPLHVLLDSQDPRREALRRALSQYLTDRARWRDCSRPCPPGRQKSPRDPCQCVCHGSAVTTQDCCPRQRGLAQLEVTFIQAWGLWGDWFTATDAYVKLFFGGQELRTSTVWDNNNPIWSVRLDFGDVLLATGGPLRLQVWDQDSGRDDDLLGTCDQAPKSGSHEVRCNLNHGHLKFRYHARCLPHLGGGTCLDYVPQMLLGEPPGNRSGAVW

| Compound | pIC50 [1] | pIC50 (Perforin-1) |
| --- | --- | --- |
| O=C1NC(=S)NC1=Cc1ccc(-c2ccc3c(c2)COC3=O)s1 | 6.11 | – |
| O=C1NC(=S)NC1=Cc1ccc(-c2ccc3c(c2)COC3=O)nc1 | 5.70 | – |
| O=C1NC(=S)NC1=Cc1ccc(-c2ccc3c(c2)COC3=O)[nH]1 | 5.61 | – |
| O=C1NC(=S)NC1=Cc1nc(-c2ccc3c(c2)COC3=O)cs1 | 5.85 | – |
| O=C1NC(=S)NC1=Cc1csc(-c2ccc3c(c2)COC3=O)n1 | 6.47 | – |
| O=C1NC(=S)NC1=Cc1cc(-c2ccc3c(c2)COC3=O)ns1 | 5.84 | – |
| O=C1NC(=S)NC1=Cc1cc2cc(-c3ccc4c(c3)COC4=O)ccc2o1 | 6.29 | – |
| O=C1NC(=S)NC1=Cc1cc2cc(-c3ccc4c(c3)COC4=O)ccc2[nH]1 | 6.09 | – |
| O=C1NC(=S)NC1=Cc1ccc2cc(-c3ccc4c(c3)COC4=O)ccc2n1 | 6.33 | – |
| O=C(NCC=Cc1[nH]c(=S)[nH]c1O)c1ccc2c(c1)COC2=O | – | < 4.70 |
| O=C1OCc2cc(-c3cccs3)ccc21 | < 4.70 | – |
| CC(=O)c1ccc(-c2ccc3c(c2)COC3=O)s1 | < 4.70 | – |
| O=Cc1ccc(-c2ccc3c(c2)COC3=O)s1 | 5.20 | – |
| O=C(O)Cc1ccc(-c2ccc3c(c2)COC3=O)s1 | < 4.70 | – |
| COC(=O)Cc1ccc(-c2ccc3c(c2)COC3=O)s1 | < 4.70 | – |
| O=C1NC(=S)SC1=Cc1ccc(-c2ccc3c(c2)COC3=O)s1 | < 5.00 | – |
| O=C1NC(=O)C(=Cc2ccc(-c3ccc4c(c3)COC4=O)s2)S1 | 5.95 | – |
| O=C1NC(=O)C(=Cc2ccc(-c3ccc4c(c3)COC4=O)s2)C(=O)N1 | 6.10 | – |
| O=C1NC(=S)NC(=O)C1=Cc1ccc(-c2ccc3c(c2)COC3=O)s1 | 6.40 | – |
| CN1C(=O)C(=Cc2ccc(-c3ccc4c(c3)COC4=O)s2)C(=O)N(C)C1=O | 5.40 | – |
| O=C1OCc2cc(-c3ccc(-c4cnco4)s3)ccc21 | 5.50 | – |
| O=C1NCCCC1=Cc1ccc(-c2ccc3c(c2)COC3=O)s1 | 4.82 | – |

From BindingDB's records for doi:10.1016/j.bmc.2011.12.011 (University of Auckland, 2012)
